# According to paper PMC10504751, “Chalcone/1,3,4-Oxadiazole/Benzimidazole hybrids as novel anti-proliferative agents inducing apoptosis and inhibiting EGFR & BRAFV^600E” (BMC Chemistry, 2023):
# Where two headings read alike, the source gives them in different places.
# What was measured:
# [1] = system: BT-549; assay: NCI one-dose SRB anti-proliferative screen; type: cell-based; settings: Homo sapiens, read-out: Cell growth inhibition %
# Procedure, shortened: (§1)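 The selected hybrids underwent one-dose evaluation at 10 µM. Cellular growth was estimated by colorimetric detection of bound sulforhodamine B. Lines came from a sixty-member panel representing nine tumour types.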
# [2] = system: OVCAR-5; assay: NCI one-dose SRB anti-proliferative screen; type: cell-based; settings: Homo sapiens, read-out: Cell growth inhibition %
# Procedure, shortened: as §1
# [3] = system: HCT-15; assay: NCI one-dose SRB anti-proliferative screen; type: cell-based; settings: Homo sapiens, read-out: Cell growth inhibition %
# Procedure, shortened: as §1
# [4] = system: TK-10; assay: NCI one-dose SRB anti-proliferative screen; type: cell-based; settings: Homo sapiens, read-out: Cell growth inhibition %
# Procedure, shortened: as §1
# [5] = system: SF-539; assay: NCI one-dose SRB anti-proliferative screen; type: cell-based; settings: Homo sapiens, read-out: Cell growth inhibition %
# Procedure, shortened: as §1
# [6] = system: MDA-MB-435; assay: NCI one-dose SRB anti-proliferative screen; type: cell-based; settings: Homo sapiens, read-out: Cell growth inhibition %
# Procedure, shortened: as §1
# [7] = system: A498; assay: NCI one-dose SRB anti-proliferative screen; type: cell-based; settings: Homo sapiens, read-out: Cell growth inhibition %
# Procedure, shortened: as §1
# [8] = system: OVCAR-4; assay: NCI one-dose SRB anti-proliferative screen; type: cell-based; settings: Homo sapiens, read-out: Cell growth inhibition %
# Procedure, shortened: as §1
# [9] = system: SW-620; assay: NCI one-dose SRB anti-proliferative screen; type: cell-based; settings: Homo sapiens, read-out: Cell growth inhibition %
# Procedure, shortened: as §1
# [10] = system: NCI/ADR-RES; assay: NCI one-dose SRB anti-proliferative screen; type: cell-based; settings: Homo sapiens, read-out: Cell growth inhibition %
# Procedure, shortened: as §1
# [11] = system: MDA-MB-231/ATCC; assay: NCI one-dose SRB anti-proliferative screen; type: cell-based; settings: Homo sapiens, read-out: Cell growth inhibition %
# Procedure, shortened: as §1
# [12] = system: HT29; assay: NCI one-dose SRB anti-proliferative screen; type: cell-based; settings: Homo sapiens, HT-29, read-out: Cell growth inhibition %
# Procedure, shortened: as §1
# [13] = system: HOP-92; assay: NCI one-dose SRB anti-proliferative screen; type: cell-based; settings: Homo sapiens, read-out: Cell growth inhibition %
# Procedure, shortened: as §1
# [14] = system: M14; assay: NCI one-dose SRB anti-proliferative screen; type: cell-based; settings: Homo sapiens, read-out: Cell growth inhibition %
# Procedure, shortened: as §1
# [15] = system: NCI-H460; assay: NCI one-dose SRB anti-proliferative screen; type: cell-based; settings: Homo sapiens, read-out: Cell growth inhibition %
# Procedure, shortened: as §1
# [16] = system: SK-MEL-2; assay: NCI one-dose SRB anti-proliferative screen; type: cell-based; settings: Homo sapiens, read-out: Cell growth inhibition %
# Procedure, shortened: as §1
# [17] = system: HOP-62; assay: NCI one-dose SRB anti-proliferative screen; type: cell-based; settings: Homo sapiens, read-out: Cell growth inhibition %
# Procedure, shortened: as §1
# [18] = system: HL-60(TB); assay: NCI one-dose SRB anti-proliferative screen; type: cell-based; settings: Homo sapiens, read-out: Cell growth inhibition %
# Procedure, shortened: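 Activity reflects a single-point exposure at 10 µM, with cell mass determined by a sulforhodamine B dye assay.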
# [19] = system: SNB-19; assay: NCI one-dose SRB anti-proliferative screen; type: cell-based; settings: Homo sapiens, read-out: Cell growth inhibition %
# Procedure, shortened: as §1
# [20] = system: NCI-H322M; assay: NCI one-dose SRB anti-proliferative screen; type: cell-based; settings: Homo sapiens, read-out: Cell growth inhibition %
# Procedure, shortened: as §1
# [21] = system: UO-31; assay: NCI one-dose SRB anti-proliferative screen; type: cell-based; settings: Homo sapiens, read-out: Cell growth inhibition %
# Procedure, shortened: as §1
# [22] = system: U251; assay: NCI one-dose SRB anti-proliferative screen; type: cell-based; settings: Homo sapiens, U-251, read-out: Cell growth inhibition %
# Procedure, shortened: as §1
# [23] = system: OVCAR-8; assay: NCI one-dose SRB anti-proliferative screen; type: cell-based; settings: Homo sapiens, read-out: Cell growth inhibition %
# Procedure, shortened: as §1
# [24] = system: SR; assay: NCI one-dose SRB anti-proliferative screen; type: cell-based; settings: Homo sapiens, read-out: Cell growth inhibition %
# Procedure, shortened: as §1
# [25] = BT-549, Breast cancer, NCI one dose
# [26] = OVCAR-5, Ovarian Cancer, NCI one dose
# [27] = HCT-15, Colon cancer, NCI one dose
# [28] = TK-10, Renal cancer, NCI one dose
# [29] = SF-539, CNS Cancer, NCI one dose
# [30] = MDA-MB-435, Melanoma, NCI one dose
# [31] = A498, Renal cancer, NCI one dose
# [32] = OVCAR-4, Ovarian Cancer, NCI one dose
# [33] = SW-620, Colon cancer, NCI one dose
# [34] = NCI/ADR-RES, Ovarian Cancer, NCI one dose
# [35] = MDA-MB-231/ATCC, Breast cancer, NCI one dose
# [36] = HT29, Colon cancer, NCI one dose
# [37] = HOP-92, Non-Small Cell Lung Cancer, NCI one dose
# [38] = NCI-H460, Non-Small Cell Lung Cancer, NCI one dose
# [39] = SK-MEL-2, Melanoma, NCI one dose
# [40] = HOP-62, Non-Small Cell Lung Cancer, NCI one dose
# [41] = HL-60(TB), Leukemia, NCI one dose
# [42] = SNB-19, CNS Cancer, NCI one dose
# [43] = NCI-H322M, Non-Small Cell Lung Cancer, NCI one dose
# [44] = UO-31, Renal cancer, NCI one dose
# [45] = OVCAR-8, Ovarian Cancer, NCI one dose
compound,measurement,setting,value
"COc1ccc(/C=C/C(=O)c2ccc(NC(=O)CSc3nnc(-c4ccc5[nH]c(-c6ccc(Cl)cc6)nc5c4)o3)cc2)cc1 [Compound 7h, 2-{5-[2-(4-Chlorophenyl)-1 H-benzo[d]imidazol-5-yl]-1,3,4-oxadiazol-2-ylthio}-N-{4-[(E)-3-(4-methoxyphenyl)acryloyl]phenyl}acetamide]",melting point,,228 to 230 °C
same,inhibition at 10 µM,"[1]; BT-549 (Breast Cancer), NCI one dose 10 µM",15%
same,inhibition at 10 µM,"[2]; OVCAR-5 (Ovarian Cancer), NCI one dose 10 µM",0%
same,inhibition at 10 µM,"[3]; HCT-15 (Colon Cancer), NCI one dose 10 µM",5.06%
same,inhibition at 10 µM,"[4]; TK-10 (Renal Cancer), NCI one dose 10 µM",0%
same,inhibition at 10 µM,"[5]; SF-539 (CNS Cancer), NCI one dose 10 µM",5.67%
same,inhibition at 10 µM,"[6]; MDA-MB-435 (Melanoma), NCI one dose 10 µM",1.94%
same,inhibition at 10 µM,"[7]; A498 (Renal Cancer), NCI one dose 10 µM",0%
same,inhibition at 10 µM,"[8]; OVCAR-4 (Ovarian Cancer), NCI one dose 10 µM",0%
same,inhibition at 10 µM,"[9]; SW-620 (Colon Cancer), NCI one dose 10 µM",0%
same,inhibition at 10 µM,"[10]; NCI/ADR-RES (Ovarian Cancer), NCI one dose 10 µM",0%
same,inhibition at 10 µM,"[11]; MDA-MB-231/ATCC (Breast Cancer), NCI one dose 10 µM",1.61%
same,inhibition at 10 µM,"[12]; HT29 (Colon Cancer), NCI one dose 10 µM",0%
same,inhibition at 10 µM,"[13]; HOP-92 (Non-Small Cell Lung Cancer), NCI one dose 10 µM",0%
same,inhibition at 10 µM,"[14]; M14 (Melanoma), NCI one dose 10 µM",0%
same,inhibition at 10 µM,"[15]; NCI-H460 (Non-Small Cell Lung Cancer), NCI one dose 10 µM",0%
same,inhibition at 10 µM,"[16]; SK-MEL-2 (Melanoma), NCI one dose 10 µM",0%
same,inhibition at 10 µM,"[17]; HOP-62 (Non-Small Cell Lung Cancer), NCI one dose 10 µM",0%
same,inhibition at 10 µM,"[18]; HL-60(TB) (Leukemia), NCI one dose 10 µM",21.4%
same,inhibition at 10 µM,"[19]; SNB-19 (CNS Cancer), NCI one dose 10 µM",0%
same,inhibition at 10 µM,"[20]; NCI-H322M (Non-Small Cell Lung Cancer), NCI one dose 10 µM",0%
same,inhibition at 10 µM,"[21]; UO-31 (Renal Cancer), NCI one dose 10 µM",12.5%
same,inhibition at 10 µM,"[22]; U251 (CNS Cancer), NCI one dose 10 µM",3.98%
same,inhibition at 10 µM,"[23]; OVCAR-8 (Ovarian Cancer), NCI one dose 10 µM",20.5%
same,inhibition at 10 µM,"[24]; SR (Leukemia), NCI one dose 10 µM",19.5%
"COc1ccc(-c2nc3cc(-c4nnc(SCC(=O)Nc5ccc(C(=O)/C=C/c6ccc(OC)c(OC)c6)cc5)o4)ccc3[nH]2)cc1 [Compound 7n, 2-{5-[2-(4-Methoxyphenyl)-1 H-benzo[d]imidazol-5-yl]-1,3,4-oxadiazol-2-ylthio}-N-{4-[(E)-3-(3,4-dimethoxyphenyl)acryloyl]phenyl}acetamide]",melting point,,222 to 224 °C
same,inhibition at 10 µM,[1]; [25],1.04%
same,inhibition at 10 µM,[2]; [26],0%
same,inhibition at 10 µM,[3]; [27],31.8%
same,inhibition at 10 µM,[4]; [28],0%
same,inhibition at 10 µM,[5]; [29],13.3%
same,inhibition at 10 µM,[6]; [30],6.15%
same,inhibition at 10 µM,[7]; [31],0%
same,inhibition at 10 µM,[8]; [32],13.2%
same,inhibition at 10 µM,[9]; [33],13.6%
same,inhibition at 10 µM,[10]; [34],6.05%
same,inhibition at 10 µM,[11]; [35],0%
same,inhibition at 10 µM,[12]; [36],0%
same,inhibition at 10 µM,[13]; [37],0%
same,inhibition at 10 µM,"[14]; M14, Melanoma, NCI one dose",10.6%
same,inhibition at 10 µM,[15]; [38],8.91%
same,inhibition at 10 µM,[16]; [39],6.27%
same,inhibition at 10 µM,[17]; [40],5.22%
same,inhibition at 10 µM,[18]; [41],13.8%
same,inhibition at 10 µM,[19]; [42],13.2%
same,inhibition at 10 µM,[20]; [43],5.07%
same,inhibition at 10 µM,[21]; [44],26.4%
same,inhibition at 10 µM,"[22]; U251, CNS Cancer, NCI one dose",25.3%
same,inhibition at 10 µM,[23]; [45],7.51%
same,inhibition at 10 µM,"[24]; SR, Leukemia, NCI one dose",73.6%
"COc1ccc(-c2nc3cc(-c4nnc(SCC(=O)Nc5ccc(C(=O)/C=C/c6cc(OC)c(OC)c(OC)c6)cc5)o4)ccc3[nH]2)cc1 [Compound 7o, 2-{5-[2-(4-Methoxyphenyl)-1 H-benzo[d]imidazol-5-yl]-1,3,4-oxadiazol-2-ylthio}-N-{4-[(E)-3-(3,4,5-trimethoxyphenyl)acryloyl]phenyl}acetamide]",melting point,,154 to 156 °C
same,inhibition at 10 µM,[1]; [25],0%
same,inhibition at 10 µM,[2]; [26],0%
same,inhibition at 10 µM,[3]; [27],0%
same,inhibition at 10 µM,[4]; [28],0%
same,inhibition at 10 µM,[5]; [29],2.1%
same,inhibition at 10 µM,[6]; [30],0%
same,inhibition at 10 µM,[7]; [31],0%
same,inhibition at 10 µM,[8]; [32],0%
same,inhibition at 10 µM,[9]; [33],0%
same,inhibition at 10 µM,[10]; [34],0%
same,inhibition at 10 µM,[11]; [35],2.18%
same,inhibition at 10 µM,[12]; [36],0%
same,inhibition at 10 µM,[13]; [37],0%
same,inhibition at 10 µM,"[14]; M14, Melanoma, NCI one dose",0%
same,inhibition at 10 µM,[15]; [38],0%
same,inhibition at 10 µM,[16]; [39],0%
same,inhibition at 10 µM,[17]; [40],0%
same,inhibition at 10 µM,[18]; [41],0%
same,inhibition at 10 µM,[19]; [42],0%
same,inhibition at 10 µM,[20]; [43],0%
same,inhibition at 10 µM,[21]; [44],12.2%
same,inhibition at 10 µM,"[22]; U251, CNS Cancer, NCI one dose",3.23%
same,inhibition at 10 µM,[23]; [45],0%
same,inhibition at 10 µM,"[24]; SR, Leukemia, NCI one dose",15.2%
